pKi: −log10 of the molar value. Several values for one entry are separate records, joined by “and”; a condition that tells them apart may be missing. Equal values may be shown once. No end group written: not given here.
What was measured:
[1] = molecular target: T1, PaAP_T (P. aeruginosa aminopeptidase, C-terminal truncated) (Pseudomonas aeruginosa, UniProt Q02PA2); assay: Inhibition of PaAP_T in the Leu-pNA aminopeptidase assay (KI, IC50); type: biochemical; conditions: for IC50 plot data (PaAP_T activity at given peptide concentration): (S) = 2 mM, PaAP 100 nM, listed as ERWGHDFIK (linear)
T1 construct: PaAP (WT, residues 27–536); His6 (TEV cleavable) (N, cleaved yes); made in house; host or cells: E. coli SHuffle T7
Method: Aminopeptidase activity was determined spectrophotometrically primarily using amino Leu-pNA. Other commercially available pNA substrates (isoleucine, methionine, alanine, valine, proline, arginine, lysine and phenylalanine) were also assayed. Leu-pNA was incubated with enzyme (100 nM) in assay buffer (50 mM Tris, pH 8.5, 200 mM NaCl) at 25 °C. A pNA release caused an absorbance increase at 405 nm, monitored using a BMG Labtech plate reader. […] Data were plotted in GraphPad Prism (version 9) and the Michalis Menten equation was used for fitting.
Inhibition assays were carried out with the following peptides: linear-ERWGHDFIK (PaAP C-terminal residues), cyclic-ERWGHDFIK, N-acetylated and C-amidated ERWGHDFIK. IC50 values were determined by varying peptide concentration at a fixed substrate concentration (fixed at KM, (S) = 2 mM, PaAP concentration was 100 nM). […] KI values were determined by fitting the data to equation (1) (Morrison’s equation):1 v=1−Et+I+KI−Et+I+KI^2−4EtIKI/2Et where v is the velocity, Et is the total enzyme concentration, I is the concentration of inhibitor and KI is the equilibrium dissociation constant for the inhibitor. IC50 values increased when measured at increasing S, consistent with competitive inhibition.

[2] = molecular target: T2, PaAP (Pseudomonas aeruginosa, UniProt Q02PA2, A513L/Q514V/S515P); assay: Peptide digestion assay (overnight and time course, LC-MS/MALDI); type: biochemical; conditions: for substrate of / degraded by PaAP (words): incubated with PaAP overnight, LC–MS or MALDI; for P0 (parent peptide, LC–MS signal): 500 μM peptide, 1 μM PaAP_T
T2 construct: PaAP (WT, residues 27–536); His6 (TEV cleavable) (N, cleaved yes); made in house; host or cells: E. coli SHuffle T7
Method: A variety of peptides of varying lengths and compositions were incubated with PaAP at room temperature. Assays were performed by incubating (overnight at room temperature) 500 μM of substrate (peptides) with 1 μM enzyme (PaAP) in reaction buffer (50 mM Tris, pH 8.5, 100 mM NaCl). The reactions were quenched by heating to 100 °C for 10 min followed by centrifugation at 17,000g in a benchtop centrifuge to remove precipitate. Supernatant was collected and samples were analyzed by LC–MS. Initial trial assays were carried out in the presence and absence (control) of enzyme to determine if the substrate was degraded (single or triplicate experiments). Time-course assays were performed on selected peptide substrates in triplicate. A 300 μl reaction (including 500 μM of substrate) was initiated by the addition of 1 μM enzyme. The reaction was incubated at room temperature. The reaction was quenched at set timepoints by the removal of 30 μl aliquots, which were immediately heated to 100 °C for 10 min. The samples were analyzed by LC–MS using a Xevo Q-ToF (Waters) as described below, searching for masses of all peptide breakdown products.
Peptide degradation time courses were fitted to exponential equations as follows:
P0 peptide consumption was fitted to a single exponential equation (equation (2)) with the format2 yt=y0−Plateaue^−kt+Plateau
Time courses for the formation and decay of peptide intermediates were fitted to double exponential equations (equation (3)) and single exponential equations, followed by a linear phase (4)3 yt=y0−Plateau1e^−k1t+y0−Plateau2e^−k2t+Plateau 4 yt=y0−Plateaue^−kt+vt+Plateau where y(t) is the product formed at time t, y0 − Plateau is the amplitude of the exponential phase, k is the observed rate constant for the exponential phase, y0 is the value of y at time 0, Plateau is the value of y after exponential phase, C is the offset and v is the slope of the linear phase.
Peptide samples incubated in the presence and absence of PaAP were initially analyzed by MALDI. The peptide sample (0.5 µl at 10 µM) was spotted along with matrix (0.5 µl 10 mg ml^−1 α-cyano-4-hydroxycinnamic acid in ACN/0.1% TFA (50/50, vol/vol)) on a stainless steel MALDI plate and left to dry. The sample plate was loaded into a Sciex 4800 MALDI mass spectrometer. The laser voltage was adjusted to give a good signal to noise strength, and 50 shots were acquired in a random pattern across the spot and spectra combined. The spectra were externally calibrated with Sciex Pepcal mix (range: 500–4,000 m/z).

T1 sequence (Q02PA2 37-516, looked up, natural form): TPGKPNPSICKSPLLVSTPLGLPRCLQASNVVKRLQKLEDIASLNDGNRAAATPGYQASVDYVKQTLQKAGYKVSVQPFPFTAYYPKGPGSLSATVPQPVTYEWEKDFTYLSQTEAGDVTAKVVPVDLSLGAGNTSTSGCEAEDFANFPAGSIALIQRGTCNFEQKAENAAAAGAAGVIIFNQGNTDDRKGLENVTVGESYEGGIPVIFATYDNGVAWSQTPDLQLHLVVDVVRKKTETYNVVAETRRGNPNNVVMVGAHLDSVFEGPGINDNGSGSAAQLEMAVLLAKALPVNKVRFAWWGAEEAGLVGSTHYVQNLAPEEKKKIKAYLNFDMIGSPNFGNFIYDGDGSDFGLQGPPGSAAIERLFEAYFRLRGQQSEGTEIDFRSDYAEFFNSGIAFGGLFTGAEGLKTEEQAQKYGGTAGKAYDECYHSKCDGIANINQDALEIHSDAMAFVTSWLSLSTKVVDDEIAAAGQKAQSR
T2 sequence (Q02PA2 37-516 A513L/Q514V/S515P): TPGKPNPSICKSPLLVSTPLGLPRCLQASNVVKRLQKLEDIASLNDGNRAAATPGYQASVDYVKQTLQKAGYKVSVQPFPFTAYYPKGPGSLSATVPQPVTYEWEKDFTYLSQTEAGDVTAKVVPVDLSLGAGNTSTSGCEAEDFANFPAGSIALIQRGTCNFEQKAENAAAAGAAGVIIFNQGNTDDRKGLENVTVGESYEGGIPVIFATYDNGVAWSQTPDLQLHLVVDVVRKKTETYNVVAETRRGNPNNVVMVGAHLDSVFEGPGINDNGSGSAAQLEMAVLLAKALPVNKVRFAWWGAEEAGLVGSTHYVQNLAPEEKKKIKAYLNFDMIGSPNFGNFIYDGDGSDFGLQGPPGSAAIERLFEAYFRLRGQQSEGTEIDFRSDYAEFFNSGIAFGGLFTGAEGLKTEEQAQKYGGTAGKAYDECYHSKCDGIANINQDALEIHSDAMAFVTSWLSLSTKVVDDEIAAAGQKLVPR

**Q.** Which results are given for ERWGHDFIK [linear-ERWGHDFIK]?
**A.** pKi [1]: 5.00; Slope ([1]; inhibitor 1 μM, [S] 0.125 mM): 21.4683 and 20.3052 and 17.979; Slope ([1]; inhibitor 1 μM, [S] 0.25 mM): 41.2291 and 37.1458 and 30.365; Slope ([1]; inhibitor 1 μM, [S] 0.5 mM): 67.9068 and 67.7954 and 67.0654; Slope ([1]; inhibitor 1 μM, [S] 1 mM): 121.633 and 131.285 and 109.532; Slope ([1]; inhibitor 1 μM, [S] 2 mM): 200.701 and 204.537 and 171.128; Slope ([1]; inhibitor 1 μM, [S] 4 mM): 291.524 and 268.014 and 241.411; Slope ([1]; inhibitor 5 μM, [S] 0.125 mM): 9.581 and 8.778 and 8.696; Slope ([1]; inhibitor 5 μM, [S] 0.25 mM): 32.4809 and 31.8746 and 26.7767; Slope ([1]; inhibitor 5 μM, [S] 0.5 mM): 59.2205 and 59.9629 and 55.5826; Slope ([1]; inhibitor 5 μM, [S] 1 mM): 96.3415 and 104.397 and 108.74; Slope ([1]; inhibitor 5 μM, [S] 2 mM): 181.646 and 174.716 and 170.509; Slope ([1]; inhibitor 5 μM, [S] 4 mM): 244.875 and 240.668 and 225.201; Slope ([1]; inhibitor 10 μM, [S] 0.125 mM): 20.5527 and 17.7562 and 12.5469; Slope ([1]; inhibitor 10 μM, [S] 0.25 mM): 41.2291 and 35.2155 and 27.5686; Slope ([1]; inhibitor 10 μM, [S] 0.5 mM): 78.3873 and 67.5108 and 53.8255; Slope ([1]; inhibitor 10 μM, [S] 1 mM): 125.469 and 113.021 and 101.823; Slope ([1]; inhibitor 10 μM, [S] 2 mM): 183.502 and 182.636 and 149.35; Slope ([1]; inhibitor 10 μM, [S] 4 mM): 242.153 and 233.244 and 209.115; Slope ([1]; inhibitor 25 μM, [S] 0.125 mM): 6.59 and 5.065; Slope ([1]; inhibitor 25 μM, [S] 0.25 mM): 13.4378 and 10.2466 and 12.344; Slope ([1]; inhibitor 25 μM, [S] 0.5 mM): 24.5618 and 19.0802 and 21.3817; Slope ([1]; inhibitor 25 μM, [S] 1 mM): 49.4576 and 37.8759 and 44.6938; Slope ([1]; inhibitor 25 μM, [S] 2 mM): 81.2827 and 58.2058 and 83.8441; Slope ([1]; inhibitor 25 μM, [S] 4 mM): 157.641 and 123.551 and 157.764; Slope ([1]; inhibitor 50 μM, [S] 0.25 mM): 11.9777 and 10.1576 and 8.79; Slope ([1]; inhibitor 50 μM, [S] 0.5 mM): 21.0971 and 19.6494 and 15.7888; Slope ([1]; inhibitor 50 μM, [S] 2 mM): 58.0945 and 62.2891 and 43.8276; Slope ([1]; inhibitor 50 μM, [S] 4 mM): 81.3941 and 82.5449 and 61.3735; Slope ([1]; inhibitor 100 μM, [S] 0.125 mM): 4.015 and 2.528; Slope ([1]; inhibitor 100 μM, [S] 0.25 mM): 7.23 and 6.8674 and 5.4469; Slope ([1]; inhibitor 100 μM, [S] 0.5 mM): 11.4246 and 12.4479 and 9.504; Slope ([1]; inhibitor 100 μM, [S] 1 mM): 22.1736 and 23.0274 and 17.6325; Slope ([1]; inhibitor 100 μM, [S] 2 mM): 38.6801 and 37.22 and 41.7859; Slope ([1]; inhibitor 100 μM, [S] 4 mM): 61.8313 and 63.972 and 50.5094; IC50 plot data (PaAP_T activity at given peptide concentration) ([1]; log(I) 0): 90.0485 and 96.6538 and 93.9669; IC50 plot data (PaAP_T activity at given peptide concentration) ([1]; log(I) 0.39794): 67.4338 and 85.0852 and 79.5995; IC50 plot data (PaAP_T activity at given peptide concentration) ([1]; log(I) 0.69897): 45.9385 and 56.7981 and 56.8354; IC50 plot data (PaAP_T activity at given peptide concentration) ([1]; log(I) 1): 21.9729 and 26.522 and 23.891; IC50 plot data (PaAP_T activity at given peptide concentration) ([1]; log(I) 1.39794): 12.1508 and 12.1918 and 12.9158; IC50 plot data (PaAP_T activity at given peptide concentration) ([1]; log(I) 1.69897): 10.3856 and 11.9269 and 11.4231; IC50 plot data (PaAP_T activity at given peptide concentration) ([1]; log(I) 2): 9.945 and 11.4156 and 11.076; IC50 plot data (PaAP_T activity at given peptide concentration) ([1]; log(I) -0.30103): 92.6981 and 112.924 and 94.3774; substrate of / degraded by PaAP (words) [2]: acts as a substrate; substrate of / degraded by PaAP (words) ([2]; listed as ERWGHDFIK): capable of processing; P0 (parent peptide, LC–MS signal) ([2]; time 0 minutes): 472729 and 388218 and 391107; P0 (parent peptide, LC–MS signal) ([2]; time 5 minutes): 463970 and 401514 and 388992; P0 (parent peptide, LC–MS signal) ([2]; time 10 minutes): 456641 and 389333 and 386619; P0 (parent peptide, LC–MS signal) ([2]; time 30 minutes): 422990 and 361623 and 355988; P0 (parent peptide, LC–MS signal) ([2]; time 60 minutes): 374560 and 318426 and 323916; P0 (parent peptide, LC–MS signal) ([2]; time 90 minutes): 323540 and 290204 and 288024; P0 (parent peptide, LC–MS signal) ([2]; time 120 minutes): 238229 and 257847; P0 (parent peptide, LC–MS signal) ([2]; time 1220 minutes): 623.109 and 431.795 and 326.884
